Source: patent publication US12421499B2, “Method of differentiation of human pluripotent stem cells to monohormonal cells” (Cornell University, priority 2018, dated 2025)
Blank lines part the entries; values can stand above or below the compound they belong to.

Key:
GLIS3−/− PP2-β cells [1] = assay: Cell death rate (PI+ INS+ cells in INS+ cells), propidium iodide staining; type: cell-based, human; settings: for cell death rate: INS-GFP+ GLIS3−/− PP2-β cells
Experimental: Propium iodide cell viability staining. Cells at D30_L were dissociated using Accutase and replated onto 96-well plates coated with 804-G conditioned medium. Once attached, cells were stained by 2.5 μg mL^−1 propium iodide in DMEM for 12 min, washed once with DMEM and fixed with 4% paraformaldehyde for 20 min. DAPI was used to quantify total number of cells after fixation. Plates were analyzed using a Molecular Devices ImageXpress High-Content Analysis System. Data was quantified using MetaXpress software.

GLIS3−/− PP2-β cells [2] = assay: Cell apoptosis rate (cleaved caspase-3+ INS+ cells in INS+ cells) and INS+ cell number, high content imaging; type: cell-based, human; settings: for cell apoptosis rate: INS-GFP+ GLIS3−/− PP2-β cells
Experimental: Immunofluorescence staining. Cells were fixed in 4% paraformaldehyde solution (Affymetrix) for 20 min, then blocked and permeabilized in PBS solution containing 5% horse serum and 0.3% Triton for 1 hr at room temperature. The cells were incubated with primary antibodies overnight at 4 C followed by 1 hr incubation with fluorescence-conjugated secondary antibodies (Alexafluor, ThermoFisher Scientific) at RT. For pSMAD2/3 staining, cells were permeabilized with ice-cold methanol at ˜20 C for 10 min after fixation and prior to blocking. The following primary antibodies were used: anti-OCT4 (1:200, Santa Cruz), anti-SOX17 (1:500, R&D), anti-PDX1 (1:500, R&D), anti-SOX9 (1:1000, Millipore), anti-NKX6.1 (1:500, DSHB), anti-NKX2.2 (1:500, DSHB), anti-PAX6 (1:1000, Covance), anti-ISL1 (1:200, DSHB), anti-UCN3 (1:500, Phoenix Pharmaceuticals), anti-NGN3 (1:500, R&D), anti-chromogranin A (1:1000, Immunostar), anti-glucagon (1:2000, Sigma) anti-somatostatin (1:1000, DAKO), anti-ghrelin (1:500, Santa Cruz), anti-insulin (1:500, DAKO) and anti-cleaved caspase-3 (1:1000, BD Biosciences), anti-pSMAD2/3 (1:200, Cell Signaling).
High throughput chemical screening. To perform the high throughput small molecule screening, GLIS3^−/− cells at D26_L were dissociated using Accutase and replated onto 804G-coated 384-well plates at 20,000 cells/80 μl medium/well. After 8 hr, cells were treated at 1 μM and 10 μM with compounds from an in-house library of 300 signaling pathway modulators, an epigenetics library (Cayman Chemical), Prestwick library of approved drugs (FDA, EMA and other agencies), LOPAC (Sigma Aldrich) and the MicroSource library totaling 5000 chemicals. DMSO treatment was used as a negative control. Untreated wells containing WT cells were included as positive control. After 4 days of culture, cells were first stained with 2.5 μg/mL PI and then fixed and stained using antibodies against Insulin (DAKO) and cleaved caspase-3 (BD biosciences). Plates were analyzed using a Molecular Devices ImageXpress High-Content Analysis System. Two-dimensional analysis was used. Compounds inducing lower % cleaved caspase-3 (Z-score<−1.5) and a similar or higher number of INS^+ cells compared to DMSO treated wells were selected as primary hits.

SMAD2/3 phosphorylation = assay: Western blot of SMAD2/3 phosphorylation; type: cell-based, human; settings: 10 μM; GLIS3−/− cells at D30_L; vs DMSO
Experimental: Western blot analysis. Whole-cell lysates were generated by scraping cultures on day 24 of differentiation in cold PBS, and re-suspending in complete lysis buffer (20 mM Tris pH 7.0, 150 mM NaCl, 50 mM NaF, 1% NP-40 substitute, and Thermo Scientific HALT protease inhibitor cocktail 1:100). Lysates were loaded onto 10% NuPage Bis-Tris gels (Invitrogen), resolved by electrophoresis, and transferred to PVDF membranes (Bio-Rad). Membranes were blocked with 5% bovine serum albumin in TBS+ 0.05% Tween and probed overnight with primary antibody. The antibodies were rabbit anti-phospho-SMAD2/3 (1:250, Cell Signaling), rabbit anti-SMAD2/3 XP (1:5000, Cell Signaling), and mouse anti-β-actin (1:50000, Sigma A1978). Membranes were washed and incubated for 1 hr with HRP-conjugated secondary antibody (Bio-Rad) in 5% milk-TBS-0.05% Tween and developed using SuperSignal West Pico (Thermo Scientific) or Immobilon (Millipore) ECL substrate.

WT INS-GFP+ PP2-β cells = assay: Annexin V apoptosis analysis in wild-type cells; type: cell-based, human; settings: 10 μM
Experimental: Annexin V cellular apoptosis analysis. hESC derived cells were dissociated by Accutase and washed with cold PBS, stained with the PE/Annexin V apoptosis detection Kit (BD Bioscience, 559763) or A647-conjugated annexin V (Thermo Fisher Scientific) according to manufacturer's instructions, the samples were the analyzed by flow cytometry (BD Bioscience, FASC ARIA2) within 30 min. To include a positive control for apoptosis, cells were incubated with 10 μM Camptothecin (Sigma Aldrich) or DMSO for 4 hours prior to Annexin V staining.

[3] = system: GLIS3−/− PP2 cells transplanted under the kidney capsule; assay: In vivo transplantation and drug treatment, graft apoptosis by immunohistochemistry; design: species or system SCID-beige mice; settings: 15 mg/kg/day intraperitoneal for seven days, vs vehicle
Experimental: In vivo transplantation and drug treatment. WT and isogenic mutant hESCs at day 24 of differentiation (around 1 million cells) were harvested by cell scraper, mixed with 20 μl Matrigel (Corning) and transplanted under the kidney capsule of 6-8 weeks old male SCID-beige mice. For drug treatment, mice were injected intraperitoneally with 15 mg/kg/day galunisertib or vehicle for seven days. To prepare the injection cocktail, 200 mM galunisertib in DMSO was diluted ˜15 times with a 50:50 mixture of PEG300 (Sigma Aldrich) and saline (APP Pharmaceuticals). All animal work was conducted in agreement with NIH guidelines and approved by the local Institutional Animal Care and Use Committee (IACUC), the Institutional Biosafety Committee (IBC) as well as the Embryonic Stem Cell Research Committee (ESCRO).
Immunohistochemistry. Mouse kidneys with cells grafted under the capsules were washed with PBS, fixed with 4% paraformaldehyde at 4C overnight and transferred to 30% sucrose solution for dehydration. […] The slides were blocked and permeabilized in PBS solution containing 5% horse serum and 0.3% Triton for 1 hr at RT and then incubated with primary antibodies overnight at 4C followed by 1 hr incubation with fluorescence-conjugated secondary antibodies (Alexafluor, ThermoFisher Scientific) at RT. […] Fluorescent images were scored using MetaMorph® image analysis software (Molecular Devices).

[4] = 10 μM, GLIS3−/− cells at D30_L, vs DMSO

Compound: Cc1cccc(-c2nn(C(=S)Nc3ccccc3)cc2-c2ccnc3ccccc23)n1 [A83-01]
cell death rate (GLIS3−/− PP2-β cells [1]; 10 μM): significantly decrease | cell apoptosis rate (GLIS3−/− PP2-β cells [2]; 10 μM): significantly decrease

Compound: c1ccc(-c2[nH]ncc2-c2ccnc3ccccc23)nc1 [LY-364947]
cell death rate (GLIS3−/− PP2-β cells [1]; 10 μM): significantly decrease | cell apoptosis rate (GLIS3−/− PP2-β cells [2]; 10 μM): significantly decrease

Compound: NC(=O)c1ccc(-c2nc(-c3ccccn3)c(-c3ccc4c(c3)OCO4)[nH]2)cc1 [SB431642]
cell death rate (GLIS3−/− PP2-β cells [1]; 1 μM): significantly decrease | cell apoptosis rate (GLIS3−/− PP2-β cells [2]; 1 μM): significantly decrease

Compound: Cc1cccc(-c2[nH]c(C(C)(C)C)nc2-c2ccc3nccnc3c2)n1 [SB525334]
cell death rate (GLIS3−/− PP2-β cells [1]; 1 μM): significantly decrease | cell apoptosis rate (GLIS3−/− PP2-β cells [2]; 1 μM): significantly decrease

IC50 (GLIS3−/− PP2-β cells [2]; Homo sapiens, dose-dependent, inhibitory curve FIG. 4c, read-out: IC50, rescue of loss of GLIS3-induced pancreatic β-cell apoptosis): 1.14 µM
Compound: Cc1cccc(-c2nn3c(c2-c2ccnc4ccc(C(N)=O)cc24)CCC3)n1 [galunisertib]
cell death (GLIS3−/− PP2-β cells [1]; [4]): significantly reduces | number of INS+ cells (GLIS3−/− PP2-β cells [2]; 10 μM, GLIS3−/− PP2-β cells, normalized to DMSO): increases | cell apoptosis (GLIS3−/− PP2-β cells [2]; [4]): significantly reduces | increased SMAD2/3 phosphorylation (SMAD2/3 phosphorylation): inhibits | cell apoptosis of WT INS+ cells (WT INS-GFP+ PP2-β cells): does not affect | cell apoptosis rate in the transplanted cells (cleaved caspase-3+/STEM121+ cells in STEM121+ cells) ([3]; cells pre-treated with 10 μM for 16 hr): significantly decreases | cell apoptosis rate in INS+ and PDX1+ cells in the grafts [3]: significantly decreases
